Measurements taken from patent US20260183303A1, “PDK1 REGULATORY COMPOUND AND COMPOSITION CONTAINING THE SAME” (PROVIBIO CO., LTD., priority 2024, published 2026).

Tests used:
[1] = tested on: T cells isolated from mouse spleens; assay: T cell proliferation inhibition (CFSE flow cytometry, anti-CD3/anti-CD28 activation); assay type: cell-based, C57BL/6 mice; settings: mouse spleen T cells, CD3/CD28 activated, cultured three days
Method: To verify the T cell proliferation inhibitory effect of the compounds according to the present invention, the following experiment was performed based on flow cytometry analysis using carboxyfluorescein diacetate succinimidyl ester (CFSE), a fluorescent dye that binds to intracellular molecules via covalent bonds.
Spleens were extracted from 7-week-old C57BL/6 mice, ground, and then separated into single cells using a strainer ([…], SPL). Red blood cells were removed using ACK (Ammonium-Chloride-Potassium) lysis buffer to isolate white blood cells.
Finally, using a MACS Magnetic Stand and LS column, T cells were isolated from the spleen.
The T cells isolated from the spleen were resuspended in 1 mL of free medium (RPMI-1640+200 U/mL penicillin+200 μg/mL streptomycin), and 0.3 μL of CFSE (10 mM) was added. The mixture was incubated at 37° C. for 5 minutes.
Free medium (10 mL) was added to stop the reaction, and the cells were centrifuged to obtain the cell pellet.
RPMI 1640 medium containing 10% FBS, 100 U/mL penicillin, 100 μg/mL streptomycin, and resuspended the cells. The cells were then seeded into a 96-well plate at a density of 2×10^5 cells per well and activated with CD3 and CD28 antibodies ([…]) to activate T cells.
The compound diluted in DMSO was added at concentrations of 10 nM, 100 nM, 1 μM, […], 30 μM, and 50 µM, with three wells per concentration, and cultured at 37° C. and 5% CO2 for three days. The cells were then analyzed using a FACS Canto instrument.
The proliferation inhibition rate (%) was calculated using the following formula: […]

[2] = tested on: Human B Lymphocyte cell line, SU-DHL-8; assay: Relative cell viability (CCK-8), SU-DHL-8; assay type: cell-based; settings: for Relative cell viability (%): 48 hours, untreated cells (DMSO) = 100%
Method: Human-derived B lymphoma cell line SU-DHL-8 (Cat. #CRL-2961) purchased from ATCC was cultured in RPMI-1640 medium containing […], 100 U/mL penicillin, and 100 μg/mL streptomycin.
The cell culture medium was then harvested, centrifuged at 1,300 rpm for 5 minutes, and the supernatant was removed. The cells were resuspended in the same medium and dispensed into a 96-well plate (Costar 96-well cell culture plate, Corning) at 90 μL per well, resulting in the conditions specified in Table 5.
Then, 10 μL of CCK-8 was added to each well, and the plates were incubated again at 37° C. in a 5% CO2 incubator for 4 hours.
In other words, when the survival rate of untreated cells (DMSO) is set at 100%, the relative cell survival rate in each group treated with the drug at different concentrations is indicated.

SMILES: CN(C)CCN1CCN(CCCCCCCCCCCCNC(=O)c2cccnc2N)CC1 [Compound 33, 2-Amino-N-(12-(4-(2-(dimethylamino)ethyl)piperazin-1-yl)dodecyl) nicotinamide]
- Proliferation inhibition rate (%) ([1]; 10 nM): −36.05%
- Proliferation inhibition rate (%) ([1]; 100 nM): 100.00%
- Proliferation inhibition rate (%) ([1]; 1 μM): 100.00%
- Proliferation inhibition rate (%) ([1]; 10 μM): 100.00%
- Proliferation inhibition rate (%) ([1]; 30 μM): 100.00%
- Proliferation inhibition rate (%) ([1]; 50 μM): 100.00%
- Relative cell viability (%) ([2]; SU-DHL-8, 10 μM): 4.32%
- Relative cell viability (%) ([2]; SU-DHL-8, 30 μM): 3.35%
- Relative cell viability (%) ([2]; SU-DHL-8, 50 μM): 2.66%

SMILES: CC(C)(C)OC(=O)N[C@H]1CCN(CCCCCCCCCCCCNC(=O)c2cccnc2N)C1 [Compound 49, tert-Butyl(S)-(1-(12-(2-aminonicotinamido)dodecyl)pyrrolidin-3-yl)carbamate]
- inhibition at 0.01 µM ([1]; Mus musculus, T-cell, 72 h, 10 nM, read-out: Proliferation inhibition rate (%)): -22.6%
- inhibition at 0.1 µM ([1]; Mus musculus, T-cell, 72 h, 100 nM, read-out: Proliferation inhibition rate (%)): 100%
- inhibition at 1 µM ([1]; Mus musculus, T-cell, 72 h, 1 μM, read-out: Proliferation inhibition rate (%)): 100%
- inhibition at 10 µM ([1]; Mus musculus, T-cell, 72 h, 10 μM, read-out: Proliferation inhibition rate (%)): 100%
- inhibition at 30 µM ([1]; Mus musculus, T-cell, 72 h, 30 μM, read-out: Proliferation inhibition rate (%)): 100%
- inhibition at 50 µM ([1]; Mus musculus, T-cell, 72 h, 50 μM, read-out: Proliferation inhibition rate (%)): 100%
- viability at 1 µM ([2]; Homo sapiens, SU-DHL-8, 48 h, read-out: Relative cell viability (%), SU-DHL-8, 1 μM, untreated cells (DMSO) = 100%): 8.93%
- viability at 10 µM ([2]; Homo sapiens, SU-DHL-8, 48 h, read-out: Relative cell viability (%), SU-DHL-8, 10 μM, untreated cells (DMSO) = 100%): 8.02%
- viability at 30 µM ([2]; Homo sapiens, SU-DHL-8, 48 h, read-out: Relative cell viability (%), SU-DHL-8, 30 μM, untreated cells (DMSO) = 100%): 7.48%
- viability at 50 µM ([2]; Homo sapiens, SU-DHL-8, 48 h, read-out: Relative cell viability (%), SU-DHL-8, 50 μM, untreated cells (DMSO) = 100%): 4.09%

SMILES: CN(C)C1CCN(CCCCCCCCCCCCNC(=O)c2cccnc2N)C1 (centres unmarked) [Compound 19, 2-Amino-N-(12-(3-(dimethylamino)pyrrolidin-1-yl)dodecyl) nicotinamide]
- Proliferation inhibition rate (%) ([1]; 10 nM): −14.40%
- Proliferation inhibition rate (%) ([1]; 100 nM): 100.00%
- Proliferation inhibition rate (%) ([1]; 1 μM): 100.00%
- Proliferation inhibition rate (%) ([1]; 10 μM): 100.00%
- Proliferation inhibition rate (%) ([1]; 30 μM): 100.00%
- Proliferation inhibition rate (%) ([1]; 50 μM): 100.00%
- Relative cell viability (%) ([2]; SU-DHL-8, 1 μM): 8.51%
- Relative cell viability (%) ([2]; SU-DHL-8, 10 μM): 7.51%
- Relative cell viability (%) ([2]; SU-DHL-8, 30 μM): 5.98%
- Relative cell viability (%) ([2]; SU-DHL-8, 50 μM): 5.08%

SMILES: CC1CCN(CCCCCCCCCCCCNC(=O)c2cccnc2N)C1 (centres unmarked) [Compound 24, 2-Amino-N-(12-(3-methylpyrrolidin-1-yl)dodecyl) nicotinamide]
- Proliferation inhibition rate (%) ([1]; 100 nM): 100.00%
- Proliferation inhibition rate (%) ([1]; 1 μM): 100.00%
- Proliferation inhibition rate (%) ([1]; 10 μM): 100.00%
- Proliferation inhibition rate (%) ([1]; 30 μM): 100.00%
- Proliferation inhibition rate (%) ([1]; 50 μM): 100.00%
- Relative cell viability (%) ([2]; SU-DHL-8, 30 μM): 0.62%

SMILES: COc1ccc(CN2CCN(CCCCCCCCCCCCNC(=O)c3cccnc3N)CC2)cc1 [Compound 28, 2-Amino-N-(12-(4-(4-methoxybenzyl)piperazin-1-yl)dodecyl) nicotinamide]
- Proliferation inhibition rate (%) ([1]; 10 nM): −0.27%
- Proliferation inhibition rate (%) ([1]; 100 nM): 100.00%
- Proliferation inhibition rate (%) ([1]; 1 μM): 100.00%
- Proliferation inhibition rate (%) ([1]; 10 μM): 100.00%
- Proliferation inhibition rate (%) ([1]; 30 μM): 100.00%
- Proliferation inhibition rate (%) ([1]; 50 μM): 100.00%
- Relative cell viability (%) ([2]; SU-DHL-8, 1 μM): 5.46%
- Relative cell viability (%) ([2]; SU-DHL-8, 10 μM): 2.82%
- Relative cell viability (%) ([2]; SU-DHL-8, 30 μM): 0.33%

SMILES: Nc1ncccc1C(=O)NCCCCCCCCCCCCN1CCC(F)C1 (centres unmarked) [Compound 26, 2-Amino-N-(12-(3-fluoropyrrolidin-1-yl)dodecyl) nicotinamide]
- Proliferation inhibition rate (%) ([1]; 100 nM): 100.00%
- Proliferation inhibition rate (%) ([1]; 1 μM): 100.00%
- Proliferation inhibition rate (%) ([1]; 10 μM): 100.00%
- Proliferation inhibition rate (%) ([1]; 30 μM): 100.00%
- Proliferation inhibition rate (%) ([1]; 50 μM): 100.00%
- Relative cell viability (%) ([2]; SU-DHL-8, 1 μM): 1.70%
- Relative cell viability (%) ([2]; SU-DHL-8, 30 μM): 0.05%

SMILES: Nc1ncccc1C(=O)NCCCCCCCCCCCCN1CCS(=O)(=O)CC1 [Compound 25, 2-Amino-N-(12-(1,1-dioxidothiomorpholino)dodecyl) nicotinamide]
- Proliferation inhibition rate (%) ([1]; 1 μM): 100.00%
- Proliferation inhibition rate (%) ([1]; 10 μM): 100.00%
- Proliferation inhibition rate (%) ([1]; 30 μM): 100.00%
- Proliferation inhibition rate (%) ([1]; 50 μM): 100.00%
- Relative cell viability (%) ([2]; SU-DHL-8, 30 μM): 0.11%
- Relative cell viability (%) ([2]; SU-DHL-8, 50 μM): 0.95%

SMILES: Nc1ncccc1C(=O)NCCCCCCCCCCCCN1CCC(Oc2ccncc2)CC1 [Compound 38, 2-Amino-N-(12-(4-(pyridin-4-yloxy)piperidin-1-yl)dodecyl) nicotinamide]
- Proliferation inhibition rate (%) ([1]; 100 nM): 100.00%
- Proliferation inhibition rate (%) ([1]; 1 μM): 100.00%
- Proliferation inhibition rate (%) ([1]; 10 μM): 100.00%
- Proliferation inhibition rate (%) ([1]; 30 μM): 100.00%
- Proliferation inhibition rate (%) ([1]; 50 μM): 100.00%
- Relative cell viability (%) ([2]; SU-DHL-8, 10 μM): 3.30%

SMILES: CN(CCCCCCCCCCCCNC(=O)c1cccnc1N)C(C)(C)C [Compound 53, 2-Amino-N-(12-(tert-butyl(methyl)amino)dodecyl) nicotinamide]
- Proliferation inhibition rate (%) ([1]; 100 nM): 100.00%
- Proliferation inhibition rate (%) ([1]; 1 μM): 100.00%
- Proliferation inhibition rate (%) ([1]; 10 μM): 100.00%
- Proliferation inhibition rate (%) ([1]; 30 μM): 100.00%
- Proliferation inhibition rate (%) ([1]; 50 μM): 100.00%

SMILES: Nc1ncccc1C(=O)NCCCCCCCCCCCCN1CCN(C(=O)C2CC2)CC1 [Compound 99, 2-amino-N-(12-(4-(cyclopropanecarbonyl)piperazin-1-yl)dodecyl) nicotinamide]
- Proliferation inhibition rate (%) ([1]; 10 nM): −12.13%
- Proliferation inhibition rate (%) ([1]; 100 nM): 100.00%
- Proliferation inhibition rate (%) ([1]; 1 μM): 100.00%
- Proliferation inhibition rate (%) ([1]; 10 μM): 100.00%
- Proliferation inhibition rate (%) ([1]; 30 μM): 100.00%
- Proliferation inhibition rate (%) ([1]; 50 μM): 100.00%

SMILES: Nc1ncccc1C(=O)NCCCCCCCCCCCCN1CCN(C=O)CC1 [Compound 97, 2-amino-N-(12-(4-formylpiperazin-1-yl)dodecyl) nicotinamide]
- Proliferation inhibition rate (%) ([1]; 1 μM): 100.00%
- Proliferation inhibition rate (%) ([1]; 10 μM): 100.00%
- Proliferation inhibition rate (%) ([1]; 30 μM): 100.00%
- Proliferation inhibition rate (%) ([1]; 50 μM): 100.00%

SMILES: Nc1ncccc1C(=O)NCCCCCCCCCCCCN1CC=CC1 [Compound 129, 2-amino-N-(12-(2,5-dihydro-1H-pyrrol-1-yl)dodecyl) nicotinamide]
- Proliferation inhibition rate (%) ([1]; 10 nM): 0.00%
- Proliferation inhibition rate (%) ([1]; 100 nM): 90.00%
- Proliferation inhibition rate (%) ([1]; 1 μM): 100.00%
- Proliferation inhibition rate (%) ([1]; 10 μM): 100.00%
- Proliferation inhibition rate (%) ([1]; 30 μM): 100.00%
- Proliferation inhibition rate (%) ([1]; 50 μM): 100.00%

SMILES: COC1CCN(CCCCCCCCCCCCNC(=O)c2cccnc2N)C1 (centres unmarked) [Compound 126, 2-amino-N-(12-(3-methoxypyrrolidin-1-yl)dodecyl) nicotinamide]
- Proliferation inhibition rate (%) ([1]; 10 nM, listed as K-PB-48, 0.01 µM): 0.00%
- Proliferation inhibition rate (%) ([1]; 100 nM): 100.00%
- Proliferation inhibition rate (%) ([1]; 1 μM): 100.00%
- Proliferation inhibition rate (%) ([1]; 10 μM): 100.00%
- Proliferation inhibition rate (%) ([1]; 30 μM): 100.00%
- Proliferation inhibition rate (%) ([1]; 50 μM): 100.00%

SMILES: CC1CCCN(CCCCCCCCCCCCNC(=O)c2cccnc2N)CC1 (centres unmarked) [Compound 39, 2-Amino-N-(12-(4-methylazepan-1-yl)dodecyl) nicotinamide]
- Proliferation inhibition rate (%) ([1]; 100 nM): 100.00%
- Proliferation inhibition rate (%) ([1]; 1 μM): 100.00%
- Proliferation inhibition rate (%) ([1]; 10 μM): 100.00%
- Proliferation inhibition rate (%) ([1]; 30 μM): 100.00%
- Proliferation inhibition rate (%) ([1]; 50 μM): 100.00%

SMILES: Nc1ncccc1C(=O)NCCCCCCCCCCCCN1CCOC1=O [Compound 127, 2-amino-N-(12-(2-oxooxazolidin-3-yl)dodecyl) nicotinamide]
- Proliferation inhibition rate (%) ([1]; 10 μM): 100.00%
- Proliferation inhibition rate (%) ([1]; 30 μM): 100.00%
- Proliferation inhibition rate (%) ([1]; 50 μM): 100.00%
